Measured values published in PubChem BioAssay (NCI).
Where “and” joins values, the source holds several entries; their conditions need not be identical. Equal values may be shown once.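 Exposure lasted 48 hours, with cells grown in 96-well plates and compounds tested at five concentrations. At the GI50, growth is halved. Definition used: TGI = concentration required for complete inhibition of growth.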

Legend:
Assay in all cases: growth of human tumour cells (NCI), 48 h
CCRF-CEM leukemia = system: CCRF-CEM leukemia
DU-145 prostate = system: DU-145 prostate
HL-60(TB) leukemia = system: HL-60(TB) leukemia
NCI-H226 lung = system: NCI-H226 lung
OVCAR-4 ovarian = system: OVCAR-4 ovarian
RXF 393 renal = system: RXF 393 renal
SF-295 CNS = system: SF-295 CNS
SK-MEL-2 melanoma = system: SK-MEL-2 melanoma
SK-OV-3 ovarian = system: SK-OV-3 ovarian
UACC-257 melanoma = system: UACC-257 melanoma

Compound | GI50 (CCRF-CEM leukemia) | TGI (CCRF-CEM leukemia) | GI50 (DU-145 prostate) | TGI (DU-145 prostate) | GI50 (HL-60(TB) leukemia) | TGI (HL-60(TB) leukemia) | GI50 (NCI-H226 lung) | TGI (NCI-H226 lung) | GI50 (OVCAR-4 ovarian) | TGI (OVCAR-4 ovarian) | GI50 (RXF 393 renal) | TGI (RXF 393 renal) | GI50 (SF-295 CNS) | TGI (SF-295 CNS) | GI50 (SK-MEL-2 melanoma) | TGI (SK-MEL-2 melanoma) | GI50 (SK-OV-3 ovarian) | TGI (SK-OV-3 ovarian) | GI50 (UACC-257 melanoma) | TGI (UACC-257 melanoma)
Oc1ccc(N=Nc2ccc(N=Nc3ccccc3)cc2)cc1 | 0.379 µM | 14 µM | 2.09 µM | 12.2 µM | 0.366 µM | 16.1 µM | 18.3 µM | 48.2 µM | 8.43 µM | 32.9 µM | 14.3 µM | 61.4 µM | 2.32 µM | 10.1 µM | 2.29 µM | 8.06 µM | 3.29 µM | 7.87 µM | 4.23 µM | 17 µM
CCCCCN(CCCCC)CC(O)c1cc2c(c3ccccc13)CCCC2 (centres undefined) | 5.55 µM and 9.21 µM | 22.5 µM and 91.7 µM | 10.1 µM and 21.4 µM | 21.7 µM and 48.1 µM | 2.53 µM and 7.51 µM | – | 5.64 µM and 11 µM | 20.3 µM and 29.2 µM | 3.16 µM and 9.19 µM | 16 µM and 30.1 µM | 2.31 µM and 2.88 µM | 6.71 µM and 7.13 µM | 2.38 µM and 6.82 µM | 11.4 µM and 29.8 µM | 2.86 µM and 11.5 µM | 8.2 µM and 29 µM | 12.4 µM and 17 µM | 24.9 µM and 34.8 µM | 4.88 µM and 13.8 µM | 17.5 µM and 30.2 µM
N=C(N)c1ccc(-c2ccc(-c3cccs3)s2)nc1 | 1.78 µM | 4.19 µM | 1.8 µM | 4.04 µM | 1.78 µM | 4.01 µM | 2 µM | 15.8 µM | 0.944 µM | 3.32 µM | 1.56 µM | 3.54 µM | – | – | 2.19 µM | 4.2 µM | 1.56 µM | 5.88 µM | 1.74 µM | 3.5 µM
COC(=O)[C@@H](C)C[C@H](Cc1ccccc1)NC(=O)c1csc([C@@H](C[C@H](C(C)C)N(C)C(=O)C2(NC(=O)[C@H]3CCCCN3C)CC2)OC(C)=O)n1 | 0.00531 µM and 0.00333 µM | > 33.3 µM | 0.00348 µM and 0.00333 µM | – | 0.000657 µM and < 0.00333 µM | 0.00685 µM and < 0.00333 µM | 0.00333 µM | > 33.3 µM | 0.00865 µM | – | 0.0216 µM | – | 0.0251 µM and 0.00333 µM | > 33.3 µM | 0.00411 µM | – | 0.0183 µM and < 0.00333 µM | < 0.00333 µM | – | –
CN(C)c1ccc(O)c2c1C[C@H]1C[C@H]3[C@H](N(C)C)C(=O)C(C(N)=O)=C(O)[C@@]3(O)C(=O)C1=C2O | 6.27 µM | 65.9 µM | 5.07 µM | 73.6 µM | 7.44 µM | 40.4 µM | 8.58 µM | 84.5 µM | 7.53 µM | > 100 µM | 4.01 µM | 69.7 µM | 2.46 µM | 7.99 µM | – | – | 3.92 µM | > 100 µM | 8.99 µM | > 100 µM
O=C(CN1C(=O)c2ccccc2C1=O)C(O)CN1C(=O)c2ccccc2C1=O (centres undefined) | – | – | – | > 100 µM | – | > 100 µM | – | > 100 µM | – | > 100 µM | – | > 100 µM | – | 99.8 µM | – | > 100 µM | – | > 100 µM | – | > 100 µM
COC(=O)c1cc2oc(/C=C3\SC(=S)N(NC(C)=O)C3=O)cc2n1Cc1ccccc1 | – | – | 1.7 µM | 9.85 µM | 2.14 µM | 13.8 µM | 9.72 µM | 22.4 µM | – | – | 2.81 µM | 16.8 µM | 2.11 µM | 15.6 µM | 18.5 µM | > 50 µM | 6.33 µM | 15.5 µM | 5.69 µM | 16.4 µM
